The subject of one assay is Eimeria tenella. Kind of assay: efficacy against coccidial infections in chickens (Table II). In kind it is in vivo. The conditions noted are these: for Ratio: lesion score treated / infected control; for % Weight Gain / Average Degree of Infection: chicks; for Average Degree of Infection: lesion score 0 to 4, six days. The procedure: (§1) Efficacy data for Antibiotic CP-63,517 and its salts against coccidial infections in chickens was obtained in the following fashion. Groups of 3-5 ten-day old SPF white leghorn cockerel chicks were fed a mash diet containing Antibiotic CP-63,517, its sodium and/or potassium salt, or the known agents Monensin or Stenorol uniformly dispersed therein. After being on this ration for 24 hours each chick was inoculated per os with oocysts of the particular species of Eimeria being tested. Other groups of 3-5 ten-day old chicks were fed a similar mash diet free of any test compound. They were also infected after 24 hours and served as infected controls. Yet another group of 3-5 ten-day old chicks were fed the mash diet free of any test compound and were not infected with coccidia. These served as normal controls. The results of treatment were evaluated after five days in the case of E. acervulina, and six days for other challenges.
(§2) ^1 The criteria used to measure anticoccidial activity consisted of
(§3) lesion scores of 0 to 4 for Eimeria tenella after J. E. Lynch, "A New
(§4) Method for the Primary Evaluation of Anticoccidial Activity", Am. J. Vet.
(§5) modification of the scoring system devised by J. Johnson and W. H. Reid,
(§6) "Anticoccidial Drugs. Lesion Scoring Techniques in Battery and Floor Pen
(§7) Experiments in Chicks", Exp. Parasit. 28: 30-36 (1970). A constant ratio
(§8) was established by dividing the lesion score of each treated group by the
(§9) lesion score of the infected control.

Another assay has as its system rumen fluid. Kind of assay: in vitro rumen technique, propionic acid production. On the set-up: species or system calf. As for the experimental part:
The value of animal feeds generally has been determined directly by feeding the animal. British Pat. No. 1,197,826 details an in vitro rumen technique whereby the changes occurring in feeds brought about by microorganisms are measured more readily and with great accuracy in the evaluation of animal feeds. This technique involves the use of an apparatus in which the digestive processes of the animals are conducted and studied in vitro. The animal feeds, rumen inoculum and various growth promotants are introduced into and withdrawn from a laboratory unit under carefully controlled conditions and the changes taken place are studied critically and progressively during the consumption of the feed by the microorganisms. […] The change in propionic acid content is expressed as percent of the propionic acid content found in the control rumen fluid. Long term in vivo feeding studies are used to show a reliable correlation between propionic acid increase in the rumen fluid and improved animal performance.
Rumen fluid is collected from a fistulated calf which is fed on a commercial fattening ration plus hay. The rumen fluid is immediately filtered through cheese cloth, and 10 ml added to a 50 ml conical flask containing 400 mg of standard substrate (68% corn starch +17% cellulose +15% extracted soybean meal), 10 ml of a pH 6.8 buffer and the test compound. The flasks are gassed with oxygen free nitrogen for about two minutes, and incubated in a shaking water bath at 39° C. for about 16 hours. All tests are conducted in triplicate.
After incubation, 5 ml of the sample is mixed with 1 ml of 25% metaphosphoric acid. After 10 minutes 0.25 ml of formic acid is added and the mixture centrifuged at 1500 RPM for 10 minutes. Samples are then analyzed by gas-liquid chromatography by the method of D. W. Kellog, J. Dairy Science, 52, 1690 (1969). Peak heights for acetic, propionic and butyric acids are determined for samples from untreated and treated incubation flasks.

The next assay relates to Eimeria acervulina. Kind of assay: efficacy against coccidial infections in chickens (Table II). The conditions noted are these: 9 ppm in diet; for Ratio: lesion score treated / infected control; for % Weight Gain / Average Degree of Infection: chicks; for Average Degree of Infection: lesion score 0 to 3, five days. In kind it is in vivo. As for the experimental part:
as §1, §2, §3, §4, §5, §6, §7, §8, §9

The mark [1] stands for this setting: 53 ppm in diet, replicate (in parentheses).
Where [2] appears, read: 120 ppm in diet, replicate (in parentheses).
Where [3] appears, read: 0.75 ppm in diet, replicate (in parentheses).
[4] abbreviates: 3 ppm in diet, replicate (in parentheses).
Where [5] appears, read: 9 ppm in diet, replicate (in parentheses).

With `CC[C@@]1([C@@H]2O[C@@H]([C@H]3O[C@@](O)(CO)[C@H](C)C[C@@H]3C)C[C@@H]2C)CC[C@H]([C@]2(C)CC[C@]3(C[C@H](O)[C@@H](C)[C@@H]([C@@H](C)[C@@H](OC)[C@H](C)C(=O)O)O3)O2)O1` [Monensin], the Ratio in the assay on Eimeria tenella (53 ppm in diet) turned out to be 0.69; in the assay with Eimeria tenella (setting [1]), 0.54; with Eimeria tenella (120 ppm in diet), 0.09; in the assay on Eimeria tenella (setting [2]) it was 0.32. For the same molecule, the “% Weight Gain” value in the assay on Eimeria tenella (53 ppm in diet) stood at 92%; in the assay with Eimeria tenella (setting [1]), 99%; in the assay with Eimeria tenella (120 ppm in diet), 71%; with Eimeria tenella (setting [2]) it was 68%. Moreover, the “Average Degree of Infection” value in the assay on Eimeria tenella (53 ppm in diet) stood at 2.3; with Eimeria tenella (setting [1]) it was 1.7; with Eimeria tenella (120 ppm in diet), 0.3; in the assay on Eimeria tenella (setting [2]) it was 1.0. Also, the “increase in production of propionic acid over control” value in the assay with rumen fluid (10 micrograms per milliliter (10 μg/ml), comparison with Monensin) is on record as “about 20%”.

For `CC[C@@H](C(=O)[C@@H](C)[C@@H](O)[C@H](C)[C@@H]1O[C@@H]([C@@H](CC)C(=O)O)CC[C@@H]1C)[C@H]1O[C@]2(C=C[C@@H](O)[C@]3(CC[C@@](C)([C@H]4CC[C@](O)(CC)[C@H](C)O4)O3)O2)[C@H](C)C[C@@H]1C` [Salinomycin, reference compound], in the assay on rumen fluid (10 μg/ml, comparison with Salinomycin), the “increase in propionic acid” value is reported as “about 65%”.

As for `O=C(CC1NCCCC1O)Cn1cnc2cc(Br)c(Cl)cc2c1=O` (centres unmarked) [Stenorol], the Ratio with Eimeria acervulina was determined as 0.0; with Eimeria acervulina (replicate (in parentheses)), 0.0; in the assay on Eimeria tenella (0.75 ppm in diet) it was 0.51; with Eimeria tenella (setting [3]), 0.73; in the assay with Eimeria tenella (3 ppm in diet) it was 0.0; in the assay with Eimeria tenella (setting [4]), 0.0. Further, the Ratio in the assay on Eimeria tenella (9 ppm in diet) and in the assay on Eimeria tenella (setting [5]) was 0.0 in each case. Further, the “% Weight Gain” value is reported as 48% with Eimeria acervulina; 51% in the assay with Eimeria acervulina (replicate (in parentheses)); 66% in the assay on Eimeria tenella (0.75 ppm in diet); 90% with Eimeria tenella (setting [3]); 86% in the assay with Eimeria tenella (3 ppm in diet); 103% with Eimeria tenella (setting [4]). Further, the “% Weight Gain” value worked out at 63% in the assay with Eimeria tenella (9 ppm in diet) and 77% with Eimeria tenella (setting [5]). Besides, the “Average Degree of Infection” value in the assay with Eimeria acervulina amounted to 0.0; in the assay with Eimeria acervulina (replicate (in parentheses)), 0.0; with Eimeria tenella (0.75 ppm in diet) it was 1.7; in the assay on Eimeria tenella (setting [3]), 2.3; in the assay with Eimeria tenella (3 ppm in diet) it was 0.0; in the assay with Eimeria tenella (setting [4]) it was 0.0. Also, the “Average Degree of Infection” value with Eimeria tenella (9 ppm in diet) and in the assay with Eimeria tenella (setting [5]) was 0.0 throughout.

The values above are taken from US4552843A, “Process for producing an acidic polycyclic ether antibiotic by cultivation of a novel strain of Streptomyces endus subspecies aureus” (Pfizer Inc., priority 1984, dated 1985).
